Laboratory results published in publication PMC6941124 (International Journal of Molecular Sciences, 2019).
Changes are numbered by the printed parent chain.

Experiments:
CK1δ A36V = target: T1, CK1δ A36V (Homo sapiens, UniProt P48730, A36V); test: in vitro kinase assay, CK1δ mutant A36V; type: biochemical; settings: inhibitor at IC50 concentration previously determined for CK1δ WT; DMSO control = 100%; adjusted to WT = 50%; mean ± SD
T1 sequence (P48730 1-415 A36V): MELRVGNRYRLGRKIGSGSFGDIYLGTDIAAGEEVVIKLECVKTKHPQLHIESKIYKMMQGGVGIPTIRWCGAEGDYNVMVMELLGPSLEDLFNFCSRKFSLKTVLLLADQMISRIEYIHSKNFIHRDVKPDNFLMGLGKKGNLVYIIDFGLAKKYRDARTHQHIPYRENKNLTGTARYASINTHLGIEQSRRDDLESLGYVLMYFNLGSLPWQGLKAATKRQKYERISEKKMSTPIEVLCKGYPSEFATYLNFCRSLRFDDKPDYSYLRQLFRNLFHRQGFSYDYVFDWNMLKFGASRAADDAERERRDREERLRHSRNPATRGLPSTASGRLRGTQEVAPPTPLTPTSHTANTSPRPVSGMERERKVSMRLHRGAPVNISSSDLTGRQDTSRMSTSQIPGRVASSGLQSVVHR
Description: (§1) Overexpression and purification of GST-CK1δ fusion proteins, either wild type or mutant, were performed as described previously.
(§2) Each kinase assay reaction was performed in kinase buffer (25 mM Tris-HCl (pH 7.5), 10 μM ATP, 10 mM MgCl2, 100 μM EDTA) in presence of purified GST-CK1δ kinase as source of enzyme (either wild type or mutant), an assay-specific substrate (α-casein, GST-p53^1−64, or GST-β-catenin^1−181), and radiolabeled ATP (2 μCi [γ-^32P]-ATP). For performing Michaelis–Menten analysis increasing substrate concentrations were used (α-casein: 0.39−25 μM; GST-p53^1−64: 0.09−1.87 μM; GST-β-catenin^1−181: 0.07−1.32 μM). For biological evaluation of small molecule inhibitors (SMIs), each inhibitor compound was either tested at 10 μM concentration for initial screening or by using a dilution series (0.005−10 µM) for determination of IC50 values. DMSO was used as control. Reactions were incubated for 30 min at 30 °C and reactions were stopped using 5x SDS-loading buffer (250 mM Tris-HCl [pH 6.8], 25% (v/v) β-mercaptoethanol (MSH), 50% (v/v) glycerol, 10% (w/v) SDS, 0.5% (w/v) bromphenol blue). Subsequently, samples were separated by SDS-PAGE using 12.5% acrylamide gels, stained with Coomassie, and phosphorylated substrates were visualized on X-ray film. Incorporation of radiolabeled phosphate was quantified by scintillation counting of Coomassie-stained substrate bands. Defined dilutions of the reaction master mix were counted as well in order to convert results obtained as counts per minute (CPM) to units of transferred phosphate in pmol/min. Michaelis–Menten analysis was performed using GraphPad Prism 6 (GraphPad Software, San Diego, CA, USA).

CK1δ R127Q = target: T2, CK1δ R127Q (Homo sapiens, UniProt P48730, R127Q); test: in vitro kinase assay, CK1δ mutant R127Q; type: biochemical; settings: inhibitor at IC50 concentration previously determined for CK1δ WT; DMSO control = 100%; adjusted to WT = 50%; mean ± SD
T2 sequence (P48730 1-415 R127Q): T1 sequence (P48730 1-415 A36V) with V36A, R127Q
Description: as §1, §2

| Residual activity of CK1δ A36V (CK1δ A36V) [%] | Residual activity of CK1δ R127Q (CK1δ R127Q) [%] | SMILES |
| --- | --- | --- |
| 43 ± 15 | 24 ± 8 | O=C(Nc1nc2ccc(C(F)(F)F)cc2[nH]1)c1csc(NC(=O)c2ccccc2OC(F)(F)F)n1 [Bischof-5] |
| 55 ± 6 | 37 ± 5 | Cc1ccc2nc(NC(=O)CSc3nc4c(c(=O)n3-c3ccccc3)SCC4)sc2c1 [IWP-2] |
| 49 ± 7 | 36 ± 11 | COc1ccccc1-n1c(SCC(=O)Nc2nc3ccc(C)cc3s2)nc2c(c1=O)SCC2 [IWP-4] |
